PubChem BioAssay AID256 (DTP/NCI, 2004)
Several values for one entry are separate records, joined by “and”; a condition that tells them apart may be missing. Equal values may be shown once. Toxic doses and inconclusive results are not listed. Rule for the calls: active = survival T/C of 150% or more; inactive = T/C below 125% in these data.

Tested on: CD2F1 mice, L1210 leukemia ip, survival T/C
Test: NCI In Vivo Anticancer Drug Screen. Data for tumor model L1210 Leukemia (intraperitoneal) in CD2F1 (CDF1) mice
Conditions: higher = longer survival
How it was run: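 Compound-dosed mice with transplantable tumor versus matched vehicle controls; endpoint ratio T/C reported.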

[1] = endpoint: mean survival time, dose: 100.0 mg/kg/injection, schedule: Q04DX003 (ip), vehicle: saline with Tween-80
[2] = endpoint: mean survival time, dose: 200.0 mg/kg/injection, schedule: Q04DX003 (ip), vehicle: saline with Tween-80
[3] = endpoint: mean survival time, dose: 400.0 mg/kg/injection, schedule: Q04DX003 (ip), vehicle: saline with Tween-80
[4] = endpoint: mean survival time, dose: 100.0 mg/kg/injection, schedule: Q01DX009 (ip), vehicle: saline with Tween-80
[5] = endpoint: mean survival time, dose: 200.0 mg/kg/injection, schedule: Q01DX009 (ip), vehicle: saline with Tween-80
[6] = endpoint: mean survival time, dose: 400.0 mg/kg/injection, schedule: Q01DX009 (ip), vehicle: saline with Tween-80

Measured: T/C

[C-]#[O+].[C-]#[O+].[C-]#[O+].[C-]#[O+].[CH3][Sn]([CH3])[CH3].[Co]
inactive: endpoint: mean survival time, dose: 0.02 mg/kg/injection, schedule: Q01DX009 (ip), vehicle: saline 100 % of control | endpoint: mean survival time, dose: 0.04 mg/kg/injection, schedule: Q01DX009 (ip), vehicle: saline 102 % of control | endpoint: mean survival time, dose: 0.09 mg/kg/injection, schedule: Q01DX009 (ip), vehicle: saline 100 % of control and 105 % of control | endpoint: mean survival time, dose: 0.39 mg/kg/injection, schedule: Q01DX009 (ip), vehicle: saline 86 % of control | endpoint: mean survival time, dose: 0.78 mg/kg/injection, schedule: Q01DX009 (ip), vehicle: saline 107 % of control

COc1ccc(NC(=S)N(C)C)cc1
inactive: [1] 94 % of control | [2] 90 % of control | [3] 92 % of control

NCCSSCC(N)C(=O)O (centres undefined)
inactive: [1] 106 % of control | [2] 103 % of control | [3] 94 % of control

NCCc1c[nH]c2ccccc12
inactive: [4] 93 % of control | [5] 95 % of control | [6] 98 % of control

Cc1ccc(NC(=O)Nc2ccc(Nc3ccccc3)cc2)c([N+](=O)[O-])c1
inactive: endpoint: mean survival time, dose: 100.0 mg/kg/injection, schedule: Q01DX009 (ip), vehicle: Klucel (hydroxypropylcellulose) (HPC) 89 % of control | endpoint: mean survival time, dose: 200.0 mg/kg/injection, schedule: Q01DX009 (ip), vehicle: Klucel (hydroxypropylcellulose) (HPC) 92 % of control | endpoint: mean survival time, dose: 400.0 mg/kg/injection, schedule: Q01DX009 (ip), vehicle: Klucel (hydroxypropylcellulose) (HPC) 89 % of control

CCCCCCCCCCCCCCCC[N+]1(CC)CC[N+](CC)(CCCCCCCCCCCCCCCC)CC1 (centres undefined)
inactive: endpoint: mean survival time, dose: 100.0 mg/kg/injection, schedule: Q04DX003 (ip), vehicle: Klucel (hydroxypropylcellulose) (HPC) 96 % of control | endpoint: mean survival time, dose: 200.0 mg/kg/injection, schedule: Q04DX003 (ip), vehicle: Klucel (hydroxypropylcellulose) (HPC) 90 % of control | endpoint: mean survival time, dose: 400.0 mg/kg/injection, schedule: Q04DX003 (ip), vehicle: Klucel (hydroxypropylcellulose) (HPC) 100 % of control

CCCCCC1c2cc(O)ccc2OC1N1CCOCC1 (centres undefined)
inactive: endpoint: median survival time, dose: 12.0 mg/kg/injection, schedule: Q01DX009 (ip), vehicle: saline with Tween-80 108 % of control | endpoint: median survival time, dose: 25.0 mg/kg/injection, schedule: Q01DX009 (ip), vehicle: saline with Tween-80 106 % of control | endpoint: median survival time, dose: 50.0 mg/kg/injection, schedule: Q01DX009 (ip), vehicle: saline with Tween-80 97 % of control | endpoint: median survival time, dose: 100.0 mg/kg/injection, schedule: Q01DX009 (ip), vehicle: saline with Tween-80 102 % of control | endpoint: median survival time, dose: 200.0 mg/kg/injection, schedule: Q01DX009 (ip), vehicle: saline with Tween-80 98 % of control

Cc1[nH]c2ccccc2c1C(=O)C(N)=O
inactive: [4] 100 % of control | [1] 92 % of control | [5] 97 % of control | [2] 86 % of control | [6] 95 % of control | [3] 92 % of control

COc1ccc2cc3[n+](cc2c1OC)CCc1cc2c(cc1-3)OCO2
inactive: endpoint: mean survival time, dose: 5.0 mg/kg/injection, schedule: Q01DX009 (ip), vehicle: saline with Tween-80 106 % of control | endpoint: mean survival time, dose: 5.0 mg/kg/injection, schedule: Q04DX003 (ip), vehicle: saline with Tween-80 98 % of control | endpoint: mean survival time, dose: 10.0 mg/kg/injection, schedule: Q01DX009 (ip), vehicle: saline with Tween-80 93 % of control | endpoint: mean survival time, dose: 10.0 mg/kg/injection, schedule: Q04DX003 (ip), vehicle: saline with Tween-80 96 % of control | endpoint: mean survival time, dose: 20.0 mg/kg/injection, schedule: Q04DX003 (ip), vehicle: saline with Tween-80 94 % of control

CC(=O)NC(C(=O)O)C(C)c1c[nH]c2ccccc12 (centres undefined)
inactive: [4] 104 % of control | [1] 97 % of control | [5] 96 % of control | [2] 97 % of control | [6] 95 % of control | [3] 91 % of control

CN(C)C(=O)OCC[N+](C)(C)CCCCCCCCCC[N+](C)(C)CCOC(=O)N(C)C
inactive: endpoint: mean survival time, dose: 1.25 mg/kg/injection, schedule: Q04DX003 (ip), vehicle: saline 103 % of control | endpoint: mean survival time, dose: 2.5 mg/kg/injection, schedule: Q04DX003 (ip), vehicle: saline 97 % of control
